Legend:
Assay in all cases: relative viability (nuclei count vs DMSO), 5 days (fraction); higher = more cells survive
SK-LU-1 = tested on: SK-LU-1
Method in brief: (§1)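 Relative viability is defined as nuclei in treated wells over nuclei in vehicle wells. Duplicate plates were run and medians reported. Lung cancer cell lines in 1536-well plates were dosed by pin tool one day after seeding, with one drug or with a fixed anchor-drug dose plus five library-drug doses (not always all listed) in √10 steps, and nuclei were counted after 5 days.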

NCI-H2405 = tested on: NCI-H2405
Method in brief: as §1

LK-2 = tested on: LK-2
Method in brief: as §1

HCC-827 = tested on: HCC-827
Method in brief: as §1

H3255 = tested on: H3255
Method in brief: as §1

LCLC-97TM1 = tested on: LCLC-97TM1
Method in brief: as §1

NCI-H522 = tested on: NCI-H522
Method in brief: as §1

NCI-H1993 = tested on: NCI-H1993
Method in brief: as §1

NCI-H2170 = tested on: NCI-H2170
Method in brief: as §1

NCI-H1650 = tested on: NCI-H1650
Method in brief: as §1

EPLC-272H = tested on: EPLC-272H
Method in brief: as §1

HOP-62 = tested on: HOP-62
Method in brief: as §1

SW 1573 = tested on: SW 1573
Method in brief: as §1

NCI-H3122 = tested on: NCI-H3122
Method in brief: as §1

NCI-H441 = tested on: NCI-H441
Method in brief: as §1

PC-3 [JPC-3] = tested on: PC-3 [JPC-3]
Method in brief: as §1

ChaGo-K-1 = tested on: ChaGo-K-1
Method in brief: as §1

LU99A = tested on: LU99A
Method in brief: as §1

NCI-H1355 = tested on: NCI-H1355
Method in brief: as §1

EKVX = tested on: EKVX
Method in brief: as §1

LXF-289 = tested on: LXF-289
Method in brief: as §1

UMC-11 = tested on: UMC-11
Method in brief: as §1

Cc1csc(=NC2CCCCC2)n1/N=C/c1ccc(O)c(O)c1O [MIM1] + Nc1ncn([C@H]2C[C@H](O)[C@@H](CO)O2)c(=O)n1 [Decitabine] (partner 2 µM)
relative viability (SK-LU-1; first compound 0.2 µM): 0.686
relative viability (SK-LU-1; first compound 0.6325 µM): 0.727
relative viability (SK-LU-1; first compound 2 µM): 0.708
relative viability (SK-LU-1; first compound 6.325 µM): 0.65
relative viability (SK-LU-1; first compound 20 µM): 0.351
relative viability (NCI-H2405; first compound 0.2 µM): 0.744
relative viability (NCI-H2405; first compound 0.6325 µM): 0.738
relative viability (NCI-H2405; first compound 2 µM): 0.771
relative viability (NCI-H2405; first compound 6.325 µM): 0.561
relative viability (NCI-H2405; first compound 20 µM): 0.421
relative viability (LK-2; first compound 0.2 µM): 0.343
relative viability (LK-2; first compound 0.6325 µM): 0.288
relative viability (LK-2; first compound 2 µM): 0.246
relative viability (LK-2; first compound 6.325 µM): 0.346
relative viability (LK-2; first compound 20 µM): 0.163
relative viability (HCC-827; first compound 0.2 µM): 0.331
relative viability (HCC-827; first compound 0.6325 µM): 0.334
relative viability (HCC-827; first compound 2 µM): 0.305
relative viability (HCC-827; first compound 6.325 µM): 0.292
relative viability (HCC-827; first compound 20 µM): 0.175
relative viability (H3255; first compound 0.2 µM): 0.562
relative viability (H3255; first compound 0.6325 µM): 0.657
relative viability (H3255; first compound 2 µM): 0.527
relative viability (H3255; first compound 6.325 µM): 0.486
relative viability (H3255; first compound 20 µM): 0.242
relative viability (LCLC-97TM1; first compound 0.2 µM): 0.245
relative viability (LCLC-97TM1; first compound 0.6325 µM): 0.238
relative viability (LCLC-97TM1; first compound 2 µM): 0.234
relative viability (LCLC-97TM1; first compound 6.325 µM): 0.214
relative viability (LCLC-97TM1; first compound 20 µM): 0.0699
relative viability (NCI-H522; first compound 0.2 µM): 0.625
relative viability (NCI-H522; first compound 0.6325 µM): 0.632
relative viability (NCI-H522; first compound 2 µM): 0.711
relative viability (NCI-H522; first compound 6.325 µM): 0.691
relative viability (NCI-H522; first compound 20 µM): 0.63
relative viability (NCI-H1993; first compound 0.2 µM): 0.534
relative viability (NCI-H1993; first compound 0.6325 µM): 0.531
relative viability (NCI-H1993; first compound 2 µM): 0.517
relative viability (NCI-H1993; first compound 6.325 µM): 0.483
relative viability (NCI-H1993; first compound 20 µM): 0.3
relative viability (NCI-H2170; first compound 0.2 µM): 0.448
relative viability (NCI-H2170; first compound 0.6325 µM): 0.455
relative viability (NCI-H2170; first compound 2 µM): 0.494
relative viability (NCI-H2170; first compound 6.325 µM): 0.401
relative viability (NCI-H2170; first compound 20 µM): 0.27
relative viability (NCI-H1650; first compound 0.2 µM): 0.428
relative viability (NCI-H1650; first compound 0.6325 µM): 0.448
relative viability (NCI-H1650; first compound 2 µM): 0.348
relative viability (NCI-H1650; first compound 6.325 µM): 0.199
relative viability (NCI-H1650; first compound 20 µM): 0.135
relative viability (EPLC-272H; first compound 0.2 µM): 0.36
relative viability (EPLC-272H; first compound 0.6325 µM): 0.382
relative viability (EPLC-272H; first compound 2 µM): 0.375
relative viability (EPLC-272H; first compound 6.325 µM): 0.29
relative viability (EPLC-272H; first compound 20 µM): 0.154
relative viability (HOP-62; first compound 0.2 µM): 0.206
relative viability (HOP-62; first compound 0.6325 µM): 0.222
relative viability (HOP-62; first compound 2 µM): 0.206
relative viability (HOP-62; first compound 6.325 µM): 0.222
relative viability (HOP-62; first compound 20 µM): 0.147
relative viability (SW 1573; first compound 0.2 µM): 0.592
relative viability (SW 1573; first compound 0.6325 µM): 0.516
relative viability (SW 1573; first compound 2 µM): 0.429
relative viability (SW 1573; first compound 6.325 µM): 0.306
relative viability (SW 1573; first compound 20 µM): 0.166
relative viability (NCI-H3122; first compound 0.2 µM): 0.449
relative viability (NCI-H3122; first compound 0.6325 µM): 0.507
relative viability (NCI-H3122; first compound 2 µM): 0.487
relative viability (NCI-H3122; first compound 6.325 µM): 0.407
relative viability (NCI-H3122; first compound 20 µM): 0.411
relative viability (NCI-H441; first compound 0.2 µM): 0.132
relative viability (NCI-H441; first compound 0.6325 µM): 0.252
relative viability (NCI-H441; first compound 2 µM): 0.241
relative viability (NCI-H441; first compound 6.325 µM): 0.173
relative viability (NCI-H441; first compound 20 µM): 0.178
relative viability (PC-3 [JPC-3]; first compound 0.2 µM): 0.816
relative viability (PC-3 [JPC-3]; first compound 0.6325 µM): 0.894
relative viability (PC-3 [JPC-3]; first compound 2 µM): 0.752
relative viability (PC-3 [JPC-3]; first compound 6.325 µM): 0.774
relative viability (PC-3 [JPC-3]; first compound 20 µM): 0.609
relative viability (ChaGo-K-1; first compound 0.2 µM): 0.542
relative viability (ChaGo-K-1; first compound 0.6325 µM): 0.527
relative viability (ChaGo-K-1; first compound 2 µM): 0.544
relative viability (ChaGo-K-1; first compound 6.325 µM): 0.459
relative viability (ChaGo-K-1; first compound 20 µM): 0.18
relative viability (LU99A; first compound 0.2 µM): 0.87
relative viability (LU99A; first compound 0.6325 µM): 0.845
relative viability (LU99A; first compound 2 µM): 0.927
relative viability (LU99A; first compound 6.325 µM): 0.889
relative viability (LU99A; first compound 20 µM): 0.393
relative viability (NCI-H1355; first compound 0.2 µM): 0.361
relative viability (NCI-H1355; first compound 0.6325 µM): 0.343
relative viability (NCI-H1355; first compound 2 µM): 0.386
relative viability (NCI-H1355; first compound 6.325 µM): 0.339
relative viability (NCI-H1355; first compound 20 µM): 0.332
relative viability (EKVX; first compound 0.2 µM): 0.405
relative viability (EKVX; first compound 0.6325 µM): 0.342
relative viability (EKVX; first compound 2 µM): 0.331
relative viability (EKVX; first compound 6.325 µM): 0.321
relative viability (EKVX; first compound 20 µM): 0.341
relative viability (LXF-289; first compound 0.2 µM): 0.399
relative viability (LXF-289; first compound 0.6325 µM): 0.368
relative viability (LXF-289; first compound 2 µM): 0.394
relative viability (LXF-289; first compound 6.325 µM): 0.328
relative viability (LXF-289; first compound 20 µM): 0.253
relative viability (UMC-11; first compound 0.2 µM): 0.565
relative viability (UMC-11; first compound 0.6325 µM): 0.585
relative viability (UMC-11; first compound 2 µM): 0.647
relative viability (UMC-11; first compound 6.325 µM): 0.607
relative viability (UMC-11; first compound 20 µM): 0.42

Source: the supplement of paper PMC10307832
